pIC50: −log10 of the molar value.
Columns and labels:
[1] = tested on: HCC827 expressing EGFR (d746-750); assay: Growth inhibition, HCC827 expressing EGFR (d746-750); format: cell-based; conditions: Homo sapiens, HCC827, 72 h; cultured three days, CellTiter-Glo
Method: (§1) (1) A human […] lung cancer cell line NCI-H1975 expressing EGFR (T790M/L858R), (2) a human non-small cell lung cancer cell line HCC827 expressing EGFR (d746-750), and (3) a human epithelioid cancer cell line A431 expressing EGFR (WT) were each suspended in complete growth medium recommended by ATCC. The cell suspensions were seeded in each well of a 384-well flat microplate or a 96-well flat plate, and cultured in an incubator containing 5% carbon dioxide gas at 37° C. for one day. Each compound of the present invention was dissolved in DMSO, and serial dilutions of the test compound were prepared using DMSO (to a concentration 500 times the final concentration). The DMSO solution of the test compound or DMSO was diluted with complete growth medium, and the resulting solution was added to each well of the cell culture plate so that the final concentration of DMSO was 0.2%. Then, the cells were cultured in an incubator containing 5% carbon dioxide gas at 37° C. for three days. The number of cells was measured before the addition of the DMSO solution of the test compound, as well as after addition and culture by using a CellTiter-Glo Assay® (produced by Promega) according to a protocol recommended by Promega.
(§2) For each cell, the cell growth inhibition rates of the wells to which the test compounds at various concentrations were added were calculated by the following formula. Then, the obtained inhibition rates (%) at the respective concentrations were plotted for each test compound, and the GI50 value (nM), which is a test compound concentration at which the cell growth can be inhibited by 50%, was determined using XLfit curve-fitting software (IDBS). • Cell Growth Inhibition Rate (%)=(C−T)/(C−CO)×100 • T: Luminescence intensity of well cultured for three days after addition of the test compound solution • C: Luminescence intensity of well cultured for three days after addition of DMSO • C0: Luminescence intensity of well before addition of the test compound solution

[2] = target: T1, EGFR (WT) (Homo sapiens, UniProt P00533); assay: EGFR (WT) kinase inhibitory activity; format: biochemical; conditions: substrate peptide 500 nM
T1 construct: expressing a cytoplasmic domain of human EGFR (WT) with its N-terminus fused to a FLAG tag; FLAG (N); made in house; host or cells: insect Sf9 cells, baculovirus expression system
T1 sequence (P00533 669-1210 limits assumed): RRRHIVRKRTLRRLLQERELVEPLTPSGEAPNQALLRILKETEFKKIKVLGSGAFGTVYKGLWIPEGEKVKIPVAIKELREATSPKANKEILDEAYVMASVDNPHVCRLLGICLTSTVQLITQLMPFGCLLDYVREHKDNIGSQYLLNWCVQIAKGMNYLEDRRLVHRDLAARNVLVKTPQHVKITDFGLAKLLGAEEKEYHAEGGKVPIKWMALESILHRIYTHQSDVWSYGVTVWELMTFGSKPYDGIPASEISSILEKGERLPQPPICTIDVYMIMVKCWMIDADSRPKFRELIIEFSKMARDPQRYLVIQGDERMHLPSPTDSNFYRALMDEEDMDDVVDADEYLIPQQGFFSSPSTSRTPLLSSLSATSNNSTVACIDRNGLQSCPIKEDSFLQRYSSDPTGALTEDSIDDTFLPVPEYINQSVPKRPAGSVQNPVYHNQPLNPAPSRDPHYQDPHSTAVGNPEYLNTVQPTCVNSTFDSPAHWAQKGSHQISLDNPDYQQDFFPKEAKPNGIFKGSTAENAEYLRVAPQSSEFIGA
Method: (§3) Among the materials of the inhibitory activity measurement, the substrate peptide and the kinase protein were obtained as follows. A peptide with biotinylated N-terminus (biotin-EEPLYWSFPAKKK) was synthesized with reference to FL-Peptide 22, a reagent for LabChip® series of PerkinElmer, Inc. For the kinase protein, a purified recombinant human EGFR (T790M/L858R) protein of Carna Biosciences, Inc. was purchased.
(§4) The inhibitory activity measurement was performed as follows. The compounds of the present invention were individually dissolved in dimethyl sulfoxide (DMSO), and serial dilutions of these compounds were prepared using DMSO. Subsequently, a solution containing the substrate peptide (final concentration: 250 nM), magnesium chloride (final concentration: 10 mM), manganese chloride (final concentration: 10 mM), and ATP (final concentration: 1 μM) in a buffer solution for kinase reaction (Carna Biosciences, Inc.) was mixed with the dilutions of the compounds (final concentration of DMSO upon kinase reaction: 2.5%) or DMSO (final concentration: 2.5%). EGFR (T790M/L858R) protein was further added thereto, and the mixtures were incubated at 25° C. for 120 minutes to carry out a kinase reaction. EDTA was added thereto to a final concentration of 24 mM to thereby terminate the reaction. A phosphorylated thyrosine detection solution containing europium (Eu)-labeled anti-phosphorylated tyrosine antibody PT66 (PerkinElmer, Inc.) and SureLight APC-SA (PerkinElmer, Inc.) was added to the reaction mixtures, and the mixtures were allowed to stand at room temperature for 2 hours or more. For the background, a sample to which EDTA was added before addition of EGFR (T790M/L858R) protein was incubated at 25° C. for 120 minutes, using DMSO instead of the DMSO solution of the compound. The detection solution was also added to this sample, and the mixture was allowed to stand for 2 hours or more. Finally, for all of the test samples, the amount of fluorescence at the time of irradiation of excitation light having a wavelength of 337 nm was measured at dual wavelengths of 620 nm and 665 nm by PHERAstar FS (BMG LABTECH), and a ratio of the fluorescence amounts at the two wavelengths was obtained as data.
(§5) Based on the above rates, phosphorylation inhibition rates (%) were calculated for the samples to which various concentrations of the compound solutions were added. Finally, the obtained reaction inhibition rates (%) at the respective concentrations were plotted for each compound, and the IC50 value (nM), which is a compound concentration at which phosphorylation by EGFR (T790M/L858R) is inhibited by 50%, was determined using XLfit curve-fitting software (IDBS).
The inhibitory activities of the compounds of the present invention against EGFR (WT) kinase activity were measured.
The materials, the measurement method, and the data analysis method were substantially the same as those shown in the above description regarding “Measurement of EGFR (T790M/L858R) Kinase Inhibitory Activity,” except that a kinase protein prepared by expressing a cytoplasmic domain of human EGFR (WT) with its N-terminus fused to a FLAG tag in insect Sf9 cells using a baculovirus expression system and then purifying it with anti-FLAG antibody agarose (Sigma-Aldrich) was used as the kinase protein, the final concentration of the substrate peptide was 500 nM, and the final concentration of ATP was […]. Finally, the IC50 value (nM) of each compound with respect to EGFR (WT) was determined by data analysis.

[3] = target: T2, EGFR (L858R) (Homo sapiens, UniProt P00533, L858R); assay: EGFR (L858R) kinase inhibitory activity; format: biochemical; conditions: ATP 4 μM
T2 construct: purchased Carna Biosciences, Inc
T2 sequence (P00533 25-1210 L858R): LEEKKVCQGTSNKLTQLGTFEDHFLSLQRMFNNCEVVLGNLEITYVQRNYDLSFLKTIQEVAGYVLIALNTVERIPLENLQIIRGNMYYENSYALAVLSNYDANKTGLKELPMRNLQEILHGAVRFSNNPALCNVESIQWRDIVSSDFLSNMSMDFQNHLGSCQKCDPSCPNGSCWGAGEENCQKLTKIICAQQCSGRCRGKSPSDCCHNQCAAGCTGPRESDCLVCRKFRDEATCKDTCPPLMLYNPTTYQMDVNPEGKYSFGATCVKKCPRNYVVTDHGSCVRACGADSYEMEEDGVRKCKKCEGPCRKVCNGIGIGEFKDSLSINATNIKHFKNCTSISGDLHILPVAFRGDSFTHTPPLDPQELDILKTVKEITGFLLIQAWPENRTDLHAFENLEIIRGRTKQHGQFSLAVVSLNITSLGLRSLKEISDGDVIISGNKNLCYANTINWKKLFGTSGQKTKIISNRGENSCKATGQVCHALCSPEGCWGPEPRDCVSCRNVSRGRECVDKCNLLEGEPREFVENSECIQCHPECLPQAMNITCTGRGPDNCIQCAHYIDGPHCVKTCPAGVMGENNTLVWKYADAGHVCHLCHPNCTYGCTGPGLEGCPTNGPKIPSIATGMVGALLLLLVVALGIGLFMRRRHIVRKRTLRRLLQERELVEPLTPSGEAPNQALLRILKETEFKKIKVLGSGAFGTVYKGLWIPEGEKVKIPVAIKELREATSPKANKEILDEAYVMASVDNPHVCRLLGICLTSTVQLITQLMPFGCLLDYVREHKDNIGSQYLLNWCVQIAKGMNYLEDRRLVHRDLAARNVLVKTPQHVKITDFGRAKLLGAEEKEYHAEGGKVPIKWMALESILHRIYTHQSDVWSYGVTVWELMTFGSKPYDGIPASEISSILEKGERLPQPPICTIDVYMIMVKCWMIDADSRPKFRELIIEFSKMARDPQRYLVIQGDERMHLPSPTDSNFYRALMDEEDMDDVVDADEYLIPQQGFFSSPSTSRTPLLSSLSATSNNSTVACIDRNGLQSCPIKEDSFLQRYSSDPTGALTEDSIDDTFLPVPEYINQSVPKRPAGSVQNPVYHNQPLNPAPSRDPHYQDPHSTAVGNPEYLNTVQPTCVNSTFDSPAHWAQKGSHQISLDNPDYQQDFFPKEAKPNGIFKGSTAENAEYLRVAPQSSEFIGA
Method: as §3, §4, §5
The inhibitory activities of the compounds of the present invention against EGFR (L858R) kinase activity were measured.
The materials, the measurement method, and the data analysis method were substantially the same as those shown in the above description regarding “Measurement of EGFR (T790M/L858R) Kinase Inhibitory Activity,” except that a purified recombinant human EGFR (L858R) protein purchased from Carna Biosciences, Inc. was used as the kinase protein, and the measurement was performed with ATP at a final concentration of 4 μM. Finally, the IC50 value (nM) of each compound with respect to EGFR (L858R) was determined by data analysis.

[4] = tested on: A431 expressing EGFR (WT); assay: Growth inhibition, A431 expressing EGFR (WT); format: cell-based; conditions: Homo sapiens, A-431, 72 h; cultured three days, CellTiter-Glo
Method: as §1, §2

[5] = target: T3, EGFR (d746-750/T790M) (Homo sapiens, UniProt P00533, DEL746-750/T790M); assay: EGFR (d746-750/T790M) kinase inhibitory activity; format: biochemical; conditions: ATP 1.5 μM
T3 construct: purchased Carna Biosciences, Inc
T3 sequence (P00533 with tags, fused parts or gaps DEL746-750/T790M limits assumed): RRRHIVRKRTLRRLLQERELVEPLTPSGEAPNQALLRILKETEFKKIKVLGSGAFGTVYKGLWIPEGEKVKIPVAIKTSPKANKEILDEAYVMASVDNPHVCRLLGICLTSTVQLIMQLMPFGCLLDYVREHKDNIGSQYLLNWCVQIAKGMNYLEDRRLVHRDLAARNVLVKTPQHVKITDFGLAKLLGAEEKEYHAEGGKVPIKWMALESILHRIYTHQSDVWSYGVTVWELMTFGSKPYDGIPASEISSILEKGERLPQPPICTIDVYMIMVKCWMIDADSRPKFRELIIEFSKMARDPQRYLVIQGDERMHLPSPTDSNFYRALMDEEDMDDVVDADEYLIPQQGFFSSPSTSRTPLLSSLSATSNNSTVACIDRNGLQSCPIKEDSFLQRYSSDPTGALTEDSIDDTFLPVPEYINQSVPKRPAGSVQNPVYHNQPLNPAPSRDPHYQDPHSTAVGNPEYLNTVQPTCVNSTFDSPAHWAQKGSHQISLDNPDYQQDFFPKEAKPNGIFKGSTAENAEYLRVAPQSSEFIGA
Method: as §3, §4, §5
The inhibitory activities of the compounds of the present invention against EGFR (d746-750/T790M) kinase activity were measured.
The materials, the measurement method, and the data analysis method were substantially the same as those shown in the above description regarding “Measurement of EGFR (T790M/L858R) Kinase Inhibitory Activity,” except that a purified recombinant human EGFR (d746-750/T790M) protein purchased from Carna Biosciences, Inc. was used as the kinase protein, and the measurement was performed with an ATP final concentration of 1.5 μM. Finally, the IC50 value (nM) of each compound with respect to EGFR (d746-750/T790M) was determined by data analysis.

[6] = target: T4, EGFR (d746-750) (Homo sapiens, UniProt P00533, DEL746-750); assay: EGFR (d746-750) kinase inhibitory activity; format: biochemical; conditions: ATP 5 μM, kinase reaction 90 minutes
T4 construct: purchased Carna Biosciences, Inc
T4 sequence (P00533 with tags, fused parts or gaps DEL746-750 limits assumed): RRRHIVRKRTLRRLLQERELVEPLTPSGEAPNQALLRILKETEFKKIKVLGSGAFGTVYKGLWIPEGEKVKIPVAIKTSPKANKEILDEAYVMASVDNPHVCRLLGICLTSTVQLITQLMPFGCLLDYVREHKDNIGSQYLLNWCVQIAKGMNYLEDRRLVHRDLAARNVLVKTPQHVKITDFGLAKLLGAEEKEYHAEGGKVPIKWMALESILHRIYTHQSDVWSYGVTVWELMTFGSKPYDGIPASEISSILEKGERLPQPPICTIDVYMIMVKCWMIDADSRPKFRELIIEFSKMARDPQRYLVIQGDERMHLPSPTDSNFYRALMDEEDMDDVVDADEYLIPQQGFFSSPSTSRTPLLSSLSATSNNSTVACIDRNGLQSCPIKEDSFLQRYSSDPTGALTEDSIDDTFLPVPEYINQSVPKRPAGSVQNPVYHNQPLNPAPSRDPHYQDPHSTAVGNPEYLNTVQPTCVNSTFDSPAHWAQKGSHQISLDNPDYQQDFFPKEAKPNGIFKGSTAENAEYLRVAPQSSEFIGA
Method: as §3, §4, §5
The inhibitory activities of the compounds of the present invention against EGFR (d746-750) kinase activity were measured.
The materials, the measurement method, and the data analysis method were substantially the same as those shown in the above description regarding “Measurement of EGFR (T790M/L858R) Kinase Inhibitory Activity,” except that a purified recombinant human EGFR (d746-750) protein purchased from Carna Biosciences, Inc. was used as the kinase protein, the measurement was performed with ATP at a final concentration of 5 μM, and the incubation for the kinase reaction was performed for 90 minutes. Finally, the IC50 value (nM) of each compound with respect to EGFR (d746-750) was determined by data analysis.

[7] = tested on: NCI-H1975 expressing EGFR (T790M/L858R); assay: Growth inhibition, NCI-H1975 expressing EGFR (T790M/L858R); format: cell-based; conditions: Homo sapiens, NCI-H1975, 72 h; cultured three days, CellTiter-Glo
Method: as §1, §2

[8] = target: T5, EGFR (T790M/L858R) (Homo sapiens, UniProt P00533, L858R/T790M); assay: EGFR (T790M/L858R) kinase inhibitory activity; format: biochemical; conditions: for pIC50: ATP 1 μM, 25° C. for 120 minutes
T5 construct: purchased Carna Biosciences, Inc
T5 sequence (P00533 25-1210 T790M/L858R): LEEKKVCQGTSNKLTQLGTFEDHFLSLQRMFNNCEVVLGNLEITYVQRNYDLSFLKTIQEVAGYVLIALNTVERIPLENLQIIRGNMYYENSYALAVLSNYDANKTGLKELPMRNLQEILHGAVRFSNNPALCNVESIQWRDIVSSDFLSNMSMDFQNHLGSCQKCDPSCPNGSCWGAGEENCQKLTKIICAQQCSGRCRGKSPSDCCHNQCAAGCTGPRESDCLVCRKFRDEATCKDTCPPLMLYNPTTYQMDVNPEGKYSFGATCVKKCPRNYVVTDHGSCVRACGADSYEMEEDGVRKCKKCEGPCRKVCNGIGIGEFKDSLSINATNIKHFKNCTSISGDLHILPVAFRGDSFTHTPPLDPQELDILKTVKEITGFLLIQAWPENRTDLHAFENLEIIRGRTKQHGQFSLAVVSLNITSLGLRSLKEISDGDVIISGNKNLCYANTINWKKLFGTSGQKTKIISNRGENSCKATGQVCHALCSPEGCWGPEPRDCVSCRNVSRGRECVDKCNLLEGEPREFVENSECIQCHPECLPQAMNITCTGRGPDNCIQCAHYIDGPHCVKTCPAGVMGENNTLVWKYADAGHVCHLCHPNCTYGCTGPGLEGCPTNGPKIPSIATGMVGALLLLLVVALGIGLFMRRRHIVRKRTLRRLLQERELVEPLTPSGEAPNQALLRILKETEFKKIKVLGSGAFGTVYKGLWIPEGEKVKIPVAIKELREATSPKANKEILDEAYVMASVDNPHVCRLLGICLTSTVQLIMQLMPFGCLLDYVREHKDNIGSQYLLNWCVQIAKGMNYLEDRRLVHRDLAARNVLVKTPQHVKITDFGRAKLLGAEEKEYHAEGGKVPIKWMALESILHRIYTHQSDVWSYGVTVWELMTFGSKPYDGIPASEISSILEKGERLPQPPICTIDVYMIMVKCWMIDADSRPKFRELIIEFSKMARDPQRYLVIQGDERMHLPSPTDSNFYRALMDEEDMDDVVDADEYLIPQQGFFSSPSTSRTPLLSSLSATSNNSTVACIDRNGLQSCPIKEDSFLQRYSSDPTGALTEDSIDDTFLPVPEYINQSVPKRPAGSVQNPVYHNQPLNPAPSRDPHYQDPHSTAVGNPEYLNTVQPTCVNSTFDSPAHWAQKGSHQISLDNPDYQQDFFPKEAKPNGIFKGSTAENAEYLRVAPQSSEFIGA
Method: The inhibitory activities of the compounds of the present invention against EGFR (T790M/L858R) kinase activity were measured.
as §3, §4, §5

Structure (SMILES) | GI50 [1] | pIC50 [2] | pIC50 [3] | GI50 [4] | pIC50 [5] | pIC50 [6] | GI50 [7] | pIC50 [8] | inhibitory activity against EGFR kinases (in words) ([8]; summary for EGFR (L858R), (d746-750), (T790M/L858R), (d746-750/T790M), for the comparative compound all EGFR kinases tested)
C=CC(=O)N[C@H]1CC(=C)c2c(-c3cnc4ccccc4c3)c3c(N)ncnc3n2C1 [Example 15, (S)—N-(4-amino-6-methylene-5-(quinolin-3-yl)-6,7,8,9-tetrahydropyrimido[5,4-b]indolizin-8-yl)acrylamide] | 0.022 µM | 8.10 | 8.89 | 2 µM | 8.92 | 8.85 | 0.085 µM | 8.80 | 
C=CC(=O)N(C)[C@H]1Cn2c(c(-c3cnc4ccccc4c3)c3c(N)ncnc32)C1=C [Example 21, (R)—N-(4-amino-6-methylene-5-(quinolin-3-yl)-7,8-dihydro-6H-pyrimido[5,4-b]pyrrolizin-7-yl)-N-methylacrylamide] | 0.0081 µM | 8.11 | 8.96 | 2.6 µM | 9.47 | 9.14 | 0.056 µM | 9.22 | 
C=CC(=O)N[C@H]1Cn2c(c(-c3cnc4ccccc4c3)c3c(N)ncnc32)C1=C [Example 25, (R)—N-(4-amino-6-methylene-5-(quinolin-3-yl)-7,8-dihydro-6H-pyrimido[5,4-b]pyrrolizin-7-yl)acrylamide] | 0.26 µM |  | 7.00 | > 10 µM | 7.96 | 7.23 | 2.5 µM | 7.44 | 
Nc1ncnc2c1c(-c1cccc(NC(=O)c3ccccc3)c1)c1n2CCCC1 [Comparative Example 1, N-(3-(4-amino-6,7,8,9-tetrahydropyrimido[5,4-b]indolizin-5-yl)phenyl)benzamide, reference compound] |  |  |  |  |  |  |  |  | almost no inhibitory activity
C=CC(=O)N[C@H]1C=Cc2c(-c3cnc4ccccc4c3)c3c(N)ncnc3n2CC1 [Example 28, (R)—N-(4-amino-5-(quinolin-3-yl)-9,10-dihydro-8H-pyrimido[5′,4′:4,5]pyrrolo[1,2-a]azepin-8-yl)acrylamide] | 0.014 µM |  | 9.31 | 1.2 µM | > 9.30 | 9.57 | 0.048 µM | 9.52 | 

Continued, values first:

GI50 [1] | pIC50 [2] | pIC50 [3] | GI50 [4] | pIC50 [5] | pIC50 [6] | GI50 [7] | pIC50 [8] | inhibitory activity against EGFR kinases (in words) ([8]; summary for EGFR (L858R), (d746-750), (T790M/L858R), (d746-750/T790M), for the comparative compound all EGFR kinases tested) | Structure (SMILES)
0.016 µM | 6.96 | 7.82 | > 10 µM | 8.74 | 8.12 | 0.56 µM | 8.21 |  | C=C1c2c(-c3cnc4ccccc4c3)c3c(N)ncnc3n2C[C@H]1NC(=O)C=CC (mixture of isomers) [Example 3, (S)—N-(4-amino-6-methylene-5-(quinolin-3-yl)-7,8-dihydro-6H -pyrimido[5,4-b]pyrrolizin-7-yl)but-2-enamide]
0.0019 µM | 9.15 | > 9.30 | 0.37 µM | > 9.82 | > 9.82 | 0.009 µM | > 9.30 |  | C=CC(=O)N[C@@H]1Cn2c(c(-c3cnc4ccccc4c3)c3c(N)ncnc32)C1=C [Example 1, (S)—N-(4-amino-6-methylene-5-(quinolin-3-yl)-7,8-dihydro-6H-pyrimido[5,4-b]pyrrolizin-7-yl)acrylamide]
0.0184 µM |  | 8.77 | 4.7 µM | 9.51 | 8.96 | 0.15 µM | 9.00 |  | C=CC(=O)N(C)[C@@H]1Cn2c(c(-c3cnc4ccccc4c3)c3c(N)ncnc32)C1=C [Example 26, (S)—N-(4-amino-6-methylene-5-(quinolin-3-yl)-7,8-dihydro-6H-pyrimido[5,4-b]pyrrolizin-7-yl)-N-methylacrylamide]
0.015 µM |  | 9.46 | 1 µM | 9.60 | 9.42 | 0.11 µM | 9.47 |  | C=CC(=O)N[C@H]1C=Cc2c(-c3cnc4ccccc4c3)c3c(N)ncnc3n2C1 [Example 27, (S)—N-(4-amino-5-(quinolin-3-yl)-8,9-dihydropyrimido[5,4-b]indolizin-8-yl)acrylamide]
0.089 µM |  | 7.72 | > 10 µM | 8.08 | 7.68 | 1.6 µM | 7.85 |  | C=CC(=O)N[C@H]1CC(C)c2c(-c3cnc4ccccc4c3)c3c(N)ncnc3n2C1 (some centres unmarked) [Example 29]
